This is an account of results in US20250066853A1, “PHARMACEUTICAL COMPOSITION FOR THE TREATMENT AND/OR PREVENTION OF ANEURYSMS, DIAGNOSTIC SUPPORT METHOD FOR ANEURYSMS, AND METHOD FOR EVALUATING ANEURYSM THERAPEUTICS” (RIKEN, priority 2021, published 2025).

For test [1], the system named is AHNAK mutation-induced cerebral aneurysm model mice. The experiment in a line: AHNAK mutation-induced (AHNAKmini p.G3819A) cerebral aneurysm model mice, maximum diameter of cerebral blood vessels (Example 5). The class given is in vivo, mouse. As to conditions: day 7 to day 28 post-infection, 20 μL/g/day; PD173074 0.1 mg/mL, LY294002 0.02 mg/mL, staurosporine 0.02 mg/mL; versus non-administered group; PD173074 p<0.05. The text has this: To introduce AHNAK mutations into experimental animals, it is necessary to incorporate the gene into viral vectors or other vehicles. However, AHNAK is a large protein with a length of 5890 amino acids, making it difficult to incorporate its full-length gene into viral vectors. […] AHNAK has many repeat structures (CRU: Consensus Central Repeat Unit), and the mutation sites are also within the CRU. Therefore, we designed a low-molecular-weight version of AHNAK (AHNAKmini) that combines the […] in this order. […] The amino acid sequence of AHNAKmini is shortened to 1943 amino acids with an N-terminal FLAG tag.
The DNA encoding the AHNAKmini with the p.G3819A mutation was chemically synthesized and subcloned directly into a pAAV vector to prepare pAAV-CMV-AHNAK (SEQ ID NO: 19). This was further modified to have the mutation corresponding to p.G3819A (specifically, changing the 3156th guanine (g) in SEQ ID NO: 19 to cytosine (c)) to prepare pAAV-CMV-AHNAK p.G3819A. HEK293T cells were transfected with the pHelper vector, pRC vector, and pAAV-CMV-AHNAK p.G3819A, and cultured, after which AAV produced by the iodixanol gradient method was harvested (AAV-CMV-AHNAK p.G3819A). As a control, AAV encoding EGFP (AAV-CMV-EGFP) was similarly prepared. After determining the […] of AAV, it was mixed with a hydrogel of PBS comprising 15% Pluronic F-127.
Male C57BL/6N mice aged 8-11 weeks (CLEA Japan) were exposed to the middle cerebral artery according to the protocol described in A. Tamura et al., Journal of Cerebral Blood Flow and Metabolism, 1: 53-60 (1981). The hydrogel comprising AAV was applied multiple times at 5-minute intervals. The skull was covered with temporal fascia, the soft tissue was returned to its original position, and the skin was sutured. The total application amounts of AAV-CMV-EGFP and AAV-CMV-AHNAK p.G3819A were 2.4×10^10 vg and 3.3×10^11 vg, respectively. […]
After decapitation, the cerebral blood vessels were exposed, and the maximum diameter of the cerebral blood vessels was measured. […]

Test [2] deals with mouse model of cerebral aneurysms (PDGFRβ p.559_562del). Briefly: Mouse cerebral aneurysm model with AAV-introduced PDGFRβ p.559_562del, basilar artery size (Example 2). As to conditions: mice with AAV PDGFRβ p.559_562del, daily i.p. sunitinib 40, axitinib 25, dasatinib 10 mg/kg/day, 28 days post-infection, versus vehicle, sunitinib p<0.05 (Mann-Whitney U). It counts as in vivo.
Text: A mouse CA (cerebral aneurysm) model was constructed by applying adeno-associated virus (AAV) around the non-branching region of the basilar artery. HEK293T cells were transfected with pHelper vector, pRC vector, and a pAAV vector comprising the target gene. After culturing, AAV was harvested using the iodixanol gradient method. After determining the AAV serotype, it was mixed with a hydrogel of PBS comprising 15% Pluronic F-127. The virus concentrations (vg/mL) in the hydrogels of AAV-CMV-EGFP, AAV-CMV-PDGFRβ, and AAV-CMV-PDGFRβ p559_562del were 2×10^13, 1×10^12, and 1×10^12, respectively.
Male C57BL/6N mice aged 8-11 weeks (CLEA Japan) were deeply anesthetized with medetomidine (0.3 mg/kg), midazolam (4 mg/kg), and butorphanol (5 mg/kg) administered intraperitoneally (i.p.). The basilar artery was exposed as previously described (Yonekura et al., 2004). Three microliters of hydrogel were applied to the basilar artery and removed after 5 minutes. This application was repeated two more times. The mice were divided into three subgroups (control, PDGFRβ(wt), and PDGFRβ(mutant)). […]
To evaluate the effect of the virus, sections were stained with Elastica Van Gieson (EVG) method, selecting the largest artery section from each brain sample for measurement. […] The area and perimeter of the stained sites were calculated using FUJI-ImageJ software (J. Schindelin et al., Nature Methods, 2012).

The test system is the same in test [3]. The experiment in a line: Mouse cerebral aneurysm model with PDGFRβ p.559_562del, low-dose treatment from day 7, maximum diameter of basilar artery (Example 3).
Experimental: After deep anesthesia with isoflurane, the mice were decapitated, and the cerebral blood vessels were exposed to measure the maximum diameter of the basilar artery. Each drug administration condition was tested on three mice.

Molecules are shown by their SMILES. “Also recorded” adds a separate entry of the source.

Regarding `O=c1cc(N2CCOCC2)oc2c(-c3ccccc3)cccc12` [LY294002], the “Increase in maximum cerebral vessel diameter” value (“Increase” below) in test [1] was “suppressed in all mice”.

Consider `CCN(CC)CCCCNc1ncc2cc(-c3cc(OC)cc(OC)c3)c(NC(=O)NC(C)(C)C)nc2n1` [PD173074], for which the “Increase” value in test [1] is “significant suppression”.

Turning to `CNC(=O)c1ccccc1Sc1ccc2c(/C=C/c3ccccn3)n[nH]c2c1` [axitinib], in test [2] (listed as avitinib), the “Enlargement (dilation) of basilar artery” value is “suppressed this arterial dilation”.

As to `Cc1nc(Nc2ncc(C(=O)Nc3c(C)cccc3Cl)s2)cc(N2CCN(CCO)CC2)n1` [dasatinib], the “Enlargement (dilation) of basilar artery” value in test [2] is “suppressed this arterial dilation”. In addition, in test [3] (i.p. daily day 7 to day 28, axitinib 0.76, dasatinib 1.0, sunitinib 0.78 mg/kg/day, three mice each, dasatinib vs sunitinib p=0.040), the “Maximum diameter of basilar artery (cerebral vessel expansion) compared to sunitinib” value is “significantly suppressed cerebral vessel expansion”. Also, in test [3] (low concentration ranges, administration from day 7 after mutation introduction), the “Treatment effect on cerebral artery expansion (rank order)” value is given as “highest for dasatinib; also recorded: high treatment/preventive effects”.

As to `CN[C@@H]1C[C@H]2O[C@@](C)([C@@H]1OC)n1c3ccccc3c3c4c(c5c6ccccc6n2c5c31)C(=O)NC4` [staurosporine], the “Increase” value in test [1] is reported as “suppressed in all mice”.
